Source: ChEMBL document CHEMBL4630908 (2021)
Calls of active or inactive are those of the source.

Experiments:
[1] = target: T1, Bromodomain-containing protein 2 (Homo sapiens, UniProt P25440); experiment: TR-FRET assay (BRD2 BD2)
Target sequence in this assay (P25440 whole entry): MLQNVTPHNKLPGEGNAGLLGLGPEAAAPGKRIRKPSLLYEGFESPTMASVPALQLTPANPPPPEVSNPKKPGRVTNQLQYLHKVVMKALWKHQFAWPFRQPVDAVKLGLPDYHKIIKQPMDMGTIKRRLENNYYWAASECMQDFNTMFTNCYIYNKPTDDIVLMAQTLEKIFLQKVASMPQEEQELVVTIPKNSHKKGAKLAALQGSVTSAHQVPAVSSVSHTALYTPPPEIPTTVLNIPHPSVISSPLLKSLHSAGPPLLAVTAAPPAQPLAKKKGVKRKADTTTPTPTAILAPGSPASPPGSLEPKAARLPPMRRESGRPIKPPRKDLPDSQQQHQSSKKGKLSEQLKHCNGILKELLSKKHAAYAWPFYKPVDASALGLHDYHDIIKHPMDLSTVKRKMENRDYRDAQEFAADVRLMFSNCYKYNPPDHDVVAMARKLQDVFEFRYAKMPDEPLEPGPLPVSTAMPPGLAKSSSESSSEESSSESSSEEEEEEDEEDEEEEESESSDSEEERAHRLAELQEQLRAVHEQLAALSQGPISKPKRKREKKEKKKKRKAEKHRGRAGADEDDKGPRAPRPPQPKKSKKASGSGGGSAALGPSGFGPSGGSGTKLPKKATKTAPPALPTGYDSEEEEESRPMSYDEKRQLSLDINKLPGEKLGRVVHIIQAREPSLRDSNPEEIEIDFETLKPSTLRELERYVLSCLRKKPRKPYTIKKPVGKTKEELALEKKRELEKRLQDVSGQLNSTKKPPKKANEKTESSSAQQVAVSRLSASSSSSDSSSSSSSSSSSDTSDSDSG

[2] = target: GABA-A receptor; anion channel; experiment: Cross screening panel; type: protein-complex assay
[3] = target: T2, GABA-A receptor; anion channel (Rattus norvegicus) (UniProt O09028+P15431+P18506+P18508+P19969+P20236+P23574+P23576+P28471+P28473+P30191+P62813+P63079+P63138+Q91ZM7+Q9ES14); conditions: Compound concentration 10.0 uM
[4] = target: 5-hydroxytryptamine receptor 6 (Homo sapiens) (UniProt P50406); conditions: Compound concentration 10.0 uM
[5] = target: Sodium-dependent noradrenaline transporter (Homo sapiens) (UniProt P23975); conditions: Compound concentration 10.0 uM
[6] = target: 5-hydroxytryptamine receptor 3A (Homo sapiens) (UniProt P46098); conditions: Compound concentration 10.0 uM
[7] = target: Muscarinic acetylcholine receptor M4 (Homo sapiens) (UniProt P08173); conditions: Compound concentration 10.0 uM
[8] = target: CREB-binding protein (Homo sapiens, UniProt Q92793); experiment: CREBBP DiscoverX BROMOscan
[9] = target: T3, Transcription intermediary factor 1-alpha (Homo sapiens, UniProt O15164); experiment: TRIM24(PHD,Bromo.) DiscoverX BROMOscan
[10] = target: SWI/SNF-related matrix-associated actin-dependent regulator of chromatin subfamily A member 2 (Homo sapiens, UniProt P51531); experiment: SMARCA2 DiscoverX BROMOscan
[11] = target: Alpha-1D adrenergic receptor (Homo sapiens) (UniProt P25100); conditions: Compound concentration 10.0 uM
[12] = target: ATPase family AAA domain-containing protein 2B (Homo sapiens, UniProt Q9ULI0); experiment: ATAD2B DiscoverX BROMOscan
[13] = target: Sodium-dependent dopamine transporter (Homo sapiens) (UniProt Q01959); conditions: Compound concentration 10.0 uM
[14] = target: T4, Bromodomain testis-specific protein (Homo sapiens, UniProt Q58F21); experiment: TR-FRET assay (BRDT BD2)
[15] = target: Transcription initiation factor TFIID subunit 1 (Homo sapiens, UniProt P21675); experiment: TAF1(2) DiscoverX BROMOscan
[16] = target: T5, Bromodomain-containing protein 3 (Homo sapiens, UniProt Q15059); experiment: BET mutant TR-FRETassay (BRD3 BD1)
[17] = target: T4, Bromodomain testis-specific protein; experiment: BRDT BD1 Bromoscan (DiscoverX)
[18] = target: 5-hydroxytryptamine receptor 1B (Homo sapiens, UniProt P28222); conditions: Compound concentration 10.0 uM
[19] = target: Bromodomain-containing protein 7 (Homo sapiens, UniProt Q9NPI1); experiment: BRD7 DiscoverX BROMOscan
[20] = target: Protein polybromo-1 (Homo sapiens, UniProt Q86U86); experiment: PBRM1(2) DiscoverX BROMOscan
[21] = target: T3, Transcription intermediary factor 1-alpha; experiment: TRIM24(BROMO.) DiscoverX BROMOscan
[22] = target: T1, Bromodomain-containing protein 2; experiment: BRD2 BD1 Bromoscan (DiscoverX)
Target sequence in this assay (P25440 whole entry): as above

[23] = target: T1, Bromodomain-containing protein 2; experiment: BET mutant TR-FRET assay (BRD2 BD2)
[24] = organism: Rattus norvegicus; conditions: Compound concentration 10.0 uM
[25] = target: Beta-1 adrenergic receptor (Homo sapiens) (UniProt P08588); conditions: Compound concentration 10.0 uM
[26] = target: 5-hydroxytryptamine receptor 2B (Homo sapiens) (UniProt P41595); conditions: Compound concentration 10.0 uM
[27] = target: Beta-3 adrenergic receptor (Homo sapiens) (UniProt P13945); conditions: Compound concentration 10.0 uM
[28] = target: Muscarinic acetylcholine receptor M5 (Homo sapiens) (UniProt P08912); conditions: Compound concentration 10.0 uM
[29] = target: T5, Bromodomain-containing protein 3; experiment: BRD3 BD1 Bromoscan (DiscoverX)
Target sequence in this assay (Q15059 whole entry): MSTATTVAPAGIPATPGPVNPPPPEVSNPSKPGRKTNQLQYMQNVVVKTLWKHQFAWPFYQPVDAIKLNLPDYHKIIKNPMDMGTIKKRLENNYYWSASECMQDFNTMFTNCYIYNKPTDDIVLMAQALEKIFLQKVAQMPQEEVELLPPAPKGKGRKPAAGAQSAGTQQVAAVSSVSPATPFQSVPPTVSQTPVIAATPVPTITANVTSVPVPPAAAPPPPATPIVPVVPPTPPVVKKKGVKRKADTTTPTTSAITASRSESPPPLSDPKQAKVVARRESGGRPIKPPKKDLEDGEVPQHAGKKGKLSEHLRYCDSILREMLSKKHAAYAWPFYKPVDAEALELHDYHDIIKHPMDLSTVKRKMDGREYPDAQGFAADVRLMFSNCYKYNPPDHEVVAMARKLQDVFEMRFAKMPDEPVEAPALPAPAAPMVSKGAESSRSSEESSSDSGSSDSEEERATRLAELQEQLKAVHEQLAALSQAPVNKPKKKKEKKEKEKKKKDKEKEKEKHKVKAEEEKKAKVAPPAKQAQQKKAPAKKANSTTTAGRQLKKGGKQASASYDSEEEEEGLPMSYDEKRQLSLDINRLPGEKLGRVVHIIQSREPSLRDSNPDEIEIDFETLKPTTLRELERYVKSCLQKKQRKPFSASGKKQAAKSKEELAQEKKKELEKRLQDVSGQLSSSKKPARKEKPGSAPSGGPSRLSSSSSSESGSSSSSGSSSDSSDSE

[30] = target: Sigma intracellular receptor 2 (Homo sapiens) (UniProt Q5BJF2); conditions: Compound concentration 10.0 uM
[31] = target: E3 ubiquitin-protein ligase TRIM33 (Homo sapiens, UniProt Q9UPN9); experiment: TRIM33(PHD,Bromo.) DiscoverX BROMOscan
[32] = target: T4, Bromodomain testis-specific protein; experiment: BET mutant TR-FRET assay (BRDT BD2)
[33] = target: Muscarinic acetylcholine receptor M1 (Homo sapiens) (UniProt P11229); conditions: Compound concentration 10.0 uM
[34] = target: Sigma non-opioid intracellular receptor 1 (Homo sapiens) (UniProt Q99720); conditions: Compound concentration 10.0 uM
[35] = target: Nucleosome-remodeling factor subunit BPTF (Homo sapiens, UniProt Q12830); experiment: FALZ DiscoverX BROMOscan
[36] = target: Histone acetyltransferase KAT2B (Homo sapiens, UniProt Q92831); experiment: PCAF DiscoverX BROMOscan
[37] = target: Bromodomain-containing protein 1 (Homo sapiens, UniProt O95696); experiment: BRD1 DiscoverX BROMOscan
[38] = target: T5, Bromodomain-containing protein 3; experiment: BRD3 BD2 Bromoscan (DiscoverX)
Target sequence in this assay (Q15059 whole entry): as above

[39] = target: Alpha-1B adrenergic receptor (Homo sapiens) (UniProt P35368); conditions: Compound concentration 10.0 uM
[40] = target: Bromodomain adjacent to zinc finger domain protein 2A (Homo sapiens, UniProt Q9UIF9); experiment: BAZ2A DiscoverX BROMOscan
[41] = target: D(1B) dopamine receptor (Homo sapiens) (UniProt P21918); conditions: Compound concentration 10.0 uM
[42] = target: T5, Bromodomain-containing protein 3; experiment: BRD3(1) DiscoverX BROMOscan
Target sequence in this assay (Q15059 whole entry): as above

[43] = target: Muscarinic acetylcholine receptor M2 (Homo sapiens) (UniProt P08172); conditions: Compound concentration 10.0 uM
[44] = target: T2, GABA-A receptor; anion channel (Rattus norvegicus); conditions: Compound concentration 10.0 uM; remark: listed apart in the source
[45] = target: Alpha-2C adrenergic receptor (Homo sapiens) (UniProt P18825); conditions: Compound concentration 10.0 uM
[46] = target: Chromatin remodeling regulator CECR2 (Homo sapiens, UniProt Q9BXF3); experiment: CECR2 DiscoverX BROMOscan
[47] = target: T4, Bromodomain testis-specific protein; experiment: BET mutant TR-FRET assay (BRDT BD1)
[48] = target: T1, Bromodomain-containing protein 2; experiment: BRD2(1,2) DiscoverX BROMOscan
Target sequence in this assay (P25440 whole entry): as the sequence (P25440 whole entry) above

[49] = target: T5, Bromodomain-containing protein 3; experiment: TR-FRET assay (BRD3 BD2)
Target sequence in this assay (Q15059 whole entry): as the sequence (Q15059 whole entry) above

[50] = target: Bromodomain-containing protein 8 (Homo sapiens, UniProt Q9H0E9); experiment: BRD8(1) DiscoverX BROMOscan

T3 sequence (O15164 whole entry): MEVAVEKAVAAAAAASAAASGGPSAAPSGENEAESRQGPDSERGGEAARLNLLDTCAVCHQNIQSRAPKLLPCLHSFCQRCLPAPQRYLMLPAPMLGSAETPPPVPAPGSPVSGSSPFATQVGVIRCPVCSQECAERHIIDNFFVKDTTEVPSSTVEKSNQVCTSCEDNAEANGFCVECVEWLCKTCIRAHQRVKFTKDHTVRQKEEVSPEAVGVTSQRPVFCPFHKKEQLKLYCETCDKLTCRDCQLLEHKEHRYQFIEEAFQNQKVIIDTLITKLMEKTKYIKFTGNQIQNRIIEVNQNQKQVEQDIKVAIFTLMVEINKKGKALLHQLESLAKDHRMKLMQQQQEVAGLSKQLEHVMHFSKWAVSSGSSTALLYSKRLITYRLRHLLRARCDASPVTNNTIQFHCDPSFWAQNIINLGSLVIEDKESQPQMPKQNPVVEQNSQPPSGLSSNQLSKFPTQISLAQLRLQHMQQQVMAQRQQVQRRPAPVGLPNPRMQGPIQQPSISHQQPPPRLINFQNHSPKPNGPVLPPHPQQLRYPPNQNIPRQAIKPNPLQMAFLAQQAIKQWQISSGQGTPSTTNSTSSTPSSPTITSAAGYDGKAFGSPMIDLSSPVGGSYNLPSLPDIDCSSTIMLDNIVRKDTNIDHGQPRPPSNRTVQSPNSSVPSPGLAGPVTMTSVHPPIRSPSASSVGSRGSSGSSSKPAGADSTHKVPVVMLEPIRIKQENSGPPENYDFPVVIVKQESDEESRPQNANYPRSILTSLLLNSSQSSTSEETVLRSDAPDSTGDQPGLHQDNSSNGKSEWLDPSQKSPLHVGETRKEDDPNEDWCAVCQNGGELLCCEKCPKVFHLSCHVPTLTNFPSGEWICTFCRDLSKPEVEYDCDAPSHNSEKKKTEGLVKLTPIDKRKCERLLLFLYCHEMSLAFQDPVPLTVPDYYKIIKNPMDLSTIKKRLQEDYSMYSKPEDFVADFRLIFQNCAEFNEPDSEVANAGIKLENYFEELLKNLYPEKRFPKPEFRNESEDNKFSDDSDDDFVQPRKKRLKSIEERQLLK
Chain of Protein polybromo-1 (Q86U86 whole entry): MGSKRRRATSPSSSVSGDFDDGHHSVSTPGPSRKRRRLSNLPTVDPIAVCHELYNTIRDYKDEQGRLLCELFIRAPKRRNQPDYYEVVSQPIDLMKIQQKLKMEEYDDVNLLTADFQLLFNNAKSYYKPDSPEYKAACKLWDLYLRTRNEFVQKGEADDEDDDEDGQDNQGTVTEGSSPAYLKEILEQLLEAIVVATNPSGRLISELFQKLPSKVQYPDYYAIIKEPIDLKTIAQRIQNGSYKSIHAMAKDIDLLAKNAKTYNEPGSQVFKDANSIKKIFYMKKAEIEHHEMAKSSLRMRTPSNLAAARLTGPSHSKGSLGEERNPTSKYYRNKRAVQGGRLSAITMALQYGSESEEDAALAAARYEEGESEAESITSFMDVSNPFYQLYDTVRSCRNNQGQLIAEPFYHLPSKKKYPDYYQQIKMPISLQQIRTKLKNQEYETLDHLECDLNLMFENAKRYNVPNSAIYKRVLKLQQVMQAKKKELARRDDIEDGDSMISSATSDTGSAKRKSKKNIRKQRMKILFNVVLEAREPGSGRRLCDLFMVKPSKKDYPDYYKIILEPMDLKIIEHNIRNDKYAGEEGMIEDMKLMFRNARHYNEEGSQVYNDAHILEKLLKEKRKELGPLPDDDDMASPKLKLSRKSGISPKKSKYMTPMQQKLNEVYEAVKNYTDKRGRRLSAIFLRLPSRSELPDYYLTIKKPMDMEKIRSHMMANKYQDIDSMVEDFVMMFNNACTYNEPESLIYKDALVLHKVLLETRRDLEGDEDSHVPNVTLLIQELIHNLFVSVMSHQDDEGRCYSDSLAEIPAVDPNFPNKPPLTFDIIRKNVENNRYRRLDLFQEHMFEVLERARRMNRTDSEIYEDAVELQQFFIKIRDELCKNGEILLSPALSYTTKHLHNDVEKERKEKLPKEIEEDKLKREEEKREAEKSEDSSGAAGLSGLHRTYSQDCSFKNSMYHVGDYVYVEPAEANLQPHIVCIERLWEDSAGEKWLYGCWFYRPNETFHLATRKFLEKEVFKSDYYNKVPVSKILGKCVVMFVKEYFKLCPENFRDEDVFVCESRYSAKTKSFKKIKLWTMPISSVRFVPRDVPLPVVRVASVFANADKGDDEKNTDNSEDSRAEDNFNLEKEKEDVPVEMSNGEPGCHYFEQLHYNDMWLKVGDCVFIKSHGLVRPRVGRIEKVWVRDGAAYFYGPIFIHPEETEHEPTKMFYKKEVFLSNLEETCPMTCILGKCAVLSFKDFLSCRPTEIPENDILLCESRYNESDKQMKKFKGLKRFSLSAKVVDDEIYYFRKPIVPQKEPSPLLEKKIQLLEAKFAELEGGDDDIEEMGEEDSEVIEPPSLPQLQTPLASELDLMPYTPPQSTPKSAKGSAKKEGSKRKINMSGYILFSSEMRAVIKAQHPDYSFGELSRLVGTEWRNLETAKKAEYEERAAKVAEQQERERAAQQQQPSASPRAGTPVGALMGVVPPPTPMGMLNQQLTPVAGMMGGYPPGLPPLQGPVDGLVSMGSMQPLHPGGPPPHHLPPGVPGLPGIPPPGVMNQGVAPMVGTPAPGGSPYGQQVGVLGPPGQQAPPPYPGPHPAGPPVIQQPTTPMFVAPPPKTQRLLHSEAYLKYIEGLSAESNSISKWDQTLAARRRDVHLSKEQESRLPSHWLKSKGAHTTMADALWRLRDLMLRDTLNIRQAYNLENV
Chain of Alpha-1D adrenergic receptor (Homo sapiens) (P25100 whole entry, the tested form may be a part): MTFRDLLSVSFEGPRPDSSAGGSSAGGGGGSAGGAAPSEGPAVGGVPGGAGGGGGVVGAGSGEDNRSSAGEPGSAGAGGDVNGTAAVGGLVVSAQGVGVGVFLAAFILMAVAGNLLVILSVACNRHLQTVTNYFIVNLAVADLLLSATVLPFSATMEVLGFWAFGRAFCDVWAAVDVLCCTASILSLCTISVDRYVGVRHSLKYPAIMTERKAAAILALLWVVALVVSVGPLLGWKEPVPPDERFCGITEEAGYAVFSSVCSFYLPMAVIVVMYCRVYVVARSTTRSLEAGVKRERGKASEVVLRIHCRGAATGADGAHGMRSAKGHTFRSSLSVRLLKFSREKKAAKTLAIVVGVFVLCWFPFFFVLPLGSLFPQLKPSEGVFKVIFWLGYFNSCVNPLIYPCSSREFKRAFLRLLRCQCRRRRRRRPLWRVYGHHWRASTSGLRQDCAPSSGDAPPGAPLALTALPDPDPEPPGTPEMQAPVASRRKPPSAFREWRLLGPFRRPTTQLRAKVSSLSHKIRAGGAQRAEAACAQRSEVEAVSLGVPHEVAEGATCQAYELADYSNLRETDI

CC(=O)Nc1c(F)cc(C(=O)N[C@H]2CC[C@H](O)CC2)cc1O[C@@H](C)c1ccccc1 [GSK046]
2.08 µM (not active): Kd [29]
6.7: pIC50 [32]
4.4: pIC50 [16]
6.6: pIC50 [23]
inactive: inhibition [3] 0.61% | inhibition [4] 11.4% | inhibition [5] -0.92% | inhibition [6] 3.77% | inhibition [7] -0.27% | inhibition [11] -6.01% | inhibition [13] 3.3% | inhibition [18] 11.6% | inhibition [24] 5.68% | inhibition [25] -6.85% | inhibition [26] -6.98% | inhibition [27] 17.5% | inhibition [28] 0.93% | inhibition [30] -0.94% | inhibition [33] -4.64% | inhibition [34] 6.84% | inhibition [39] -0.75% | inhibition [41] 21.4% | inhibition [43] 18.1% | inhibition [44] 15.3% | inhibition [45] -0.86%
< 4: pEC50 [2]
1.62 µM (not active): Kd [22]
0.1 µM: Kd [48]
4.3: pIC50 [47]
2.08 µM: Kd [42]
active: IC50 [1] 0.264 µM | IC50 [14] 0.214 µM | Kd [38] 0.032 µM | IC50 [49] 0.098 µM
2.45 µM (not active): Kd [17]
30 µM: Kd [8] | Kd [9] | Kd [10] | Kd [12] | Kd [15] | Kd [19] | Kd [20] | Kd [21] | Kd [31] | Kd [35] | Kd [36] | Kd [37] | Kd [40] | Kd [46] | Kd [50]
